In US12186283B2, “Bismuth-thiol compositions and methods of use” (Microbion Corporation, priority 2018, dated 2025):
Converted amounts (≈) assume the structure as drawn. “And” between values parts separate entries of the source, which are not always exact repeats. Equal entries are not always repeated. Where two headings read alike, the source gives them in different places. *1 amine or outer side, *2 acyl side, *3 side chain or, on linkers, in order; H or OH if unused. Where a SMILES comes first, the peptide text is derived from it. Bridges are numbered along the chain shown (N, C = ends). [ ]: non-standard residue; d: D form. The star is where a group is joined. hTyr(3S-OH,4S-OH,3'-OSO3H) = N[C@H](C(=O)O)[C@H](O)[C@@H](O)c1ccc(O)c(OS(=O)(=O)O)c1; Orn(4R-OH,5R-OH) = O=C([C@H](C[C@@H](O)[C@@H](O)N[*:3])N[*:1])[*:2]; Pro(3S-OH,4S-Me) = C[C@H]1CN[C@H](C(=O)O)[C@H]1O; X1 = CCCCCOc1ccc(-c2cc(-c3ccc(C(=O)*)cc3)no2)cc1; Gln(3R-OH) = NC(=O)C[C@@H](O)[C@H](N)C(=O)O; Hyp = O=C(O)[C@@H]1C[C@@H](O)CN1

Columns and labels:
Candida krusei [1] = experiment: Broth microdilution MIC, yeast (Example 13); assay type: cell-based; conditions: C. krusei ATCC 6258 (QC, Table 110), comparators, single value
S. aureus ATCC 29213 [2] = experiment: Broth microdilution MIC, QC organism (Example 13, Table 110); assay type: cell-based, Staphylococcus aureus
From the text: (§1) MECs were only reported where observed.

Candida spp. [3] = conditions: C. parapsilosis ATCC 22019, CLSI established QC range, cited from earlier work
Candida krusei [4] = conditions: C. krusei ATCC 6258, CLSI established QC range, cited from earlier work
E. coli ATCC 25922 = experiment: Broth microdilution MIC, QC organism (Example 13, Table 110); assay type: cell-based, Escherichia coli
From the text: as §1

Aspergillus spp. = experiment: Broth microdilution MIC/MEC, mold (Example 13); assay type: cell-based; conditions: MEC
Candida spp. [5] = experiment: Broth microdilution MIC, yeast (Example 13), group statement and QC; assay type: cell-based; conditions: C. parapsilosis ATCC 22019, comparators, single value
S. aureus ATCC 29213 [6] = conditions: control strain ATCC 29213 S. aureus; per CLSI M100-S24 or provided by Microbion; cited from earlier work
P. aeruginosa [7] = experiment: Checkerboard FIC assay, BisEDT with CF agents (Example 10); assay type: cell-based, Pseudomonas aeruginosa; conditions: for MIC: agent alone, as observed during FIC testing
[8] = tested on: Burkholderia cepacia complex; experiment: Broth microdilution MIC (Example 10); conditions: initial MIC testing
P. aeruginosa [9] = experiment: Broth microdilution MIC (Example 10)
[10] = tested on: Burkholderia cepacia complex; experiment: Checkerboard FIC assay, BisEDT with CF agents (Example 10); assay type: cell-based, Burkholderia spp.; conditions: for MIC: agent alone, as observed during FIC testing
P. aeruginosa [11] = conditions: P. aeruginosa isolate 103, CLSI QC range in parenthesis, cited from earlier work
[12] = Aerosol particle size distribution of nebulized suspensions (cascade impactor / APS); conditions: exposure aerosols of the rat efficacy study, In-Tox Mercer Impactor
[13] = tested on: Pseudomonas aeruginosa strain PA01; experiment: Bacterial killing curves with and without 10% CF patient sputum
[14] = A. flavus ATCC 204304 (QC, Table 110)
[15] = A. fumigatus ATCC MYA-3626 (QC, Table 110)

## CC[C@H](C)C[C@H](C)CCCCCCCCC(=O)N[C@H]1C[C@@H](O)[C@@H](NCCN)NC(=O)[C@@H]2[C@@H](O)CCN2C(=O)[C@H]([C@H](O)CCN)NC(=O)[C@H]([C@H](O)[C@@H](O)c2ccc(O)cc2)NC(=O)[C@@H]2C[C@@H](O)CN2C(=O)[C@H]([C@@H](C)O)NC1=O [Caspofungin]
Candida krusei [1]
  MIC 24 hr: 0.25 µg/mL (≈ 0.229 µM)
  MIC 48 hr: 0.25 µg/mL (≈ 0.229 µM)
S. aureus ATCC 29213 [2]
  MIC 24 hr: > 64 µg/mL
Candida spp. [3]
  QC Range 24 hr: 0.25-1
  QC Range 48 hr: 0.5-4
Candida krusei [4]
  QC Range 24 hr: 0.12-1
  QC Range 48 hr: 0.25-2
E. coli ATCC 25922
  MIC 24 hr: > 64 µg/mL
Aspergillus spp.; [14]
  MIC 24 hr (MEC): 0.12
Candida spp. [5]
  MIC 24 hr: 0.25 µg/mL (≈ 0.229 µM)
  MIC 48 hr: 0.5 µg/mL (≈ 0.457 µM)

## CC[C@H]1OC(=O)[C@H](C)[C@@H](O[C@H]2C[C@@](C)(OC)[C@@H](O)[C@H](C)O2)[C@H](C)[C@@H](O[C@@H]2O[C@H](C)C[C@H](N(C)C)[C@H]2O)[C@](C)(OC)C[C@@H](C)C(=O)[C@H](C)[C@@H](O)[C@]1(C)O [Clarithromycin]
S. aureus ATCC 29213 [6]
  Expected MIC: acceptable range: 0.12 to 0.5 µg/mL
  Expected MIC: goal: 0.25 µg/mL

## CCCCCOc1ccc(-c2cc(-c3ccc(C(=O)N[C@H]4C[C@@H](O)[C@@H](O)NC(=O)[C@@H]5[C@@H](O)[C@@H](C)CN5C(=O)[C@H]([C@H](O)CC(N)=O)NC(=O)[C@H]([C@H](O)[C@@H](O)c5ccc(O)c(OS(=O)(=O)O)c5)NC(=O)[C@@H]5C[C@@H](O)CN5C(=O)[C@H]([C@@H](C)O)NC4=O)cc3)no2)cc1 [Micafungin] (X1-[Orn(4R-OH,5R-OH)]T[Hyp][hTyr(3S-OH,4S-OH,3'-OSO3H)][Gln(3R-OH)][Pro(3S-OH,4S-Me)]; lactam 1-C)
Candida krusei [1]
  MIC 24 hr: 0.5 µg/mL (≈ 0.394 µM)
  MIC 48 hr: 0.5 µg/mL (≈ 0.394 µM)
S. aureus ATCC 29213 [2]
  MIC 24 hr: > 64 µg/mL
Candida spp. [3]
  QC Range 24 hr: 0.5-2
  QC Range 48 hr: 0.5-4
Candida krusei [4]
  QC Range 24 hr: 0.12-0.5
  QC Range 48 hr: 0.12-0.5
E. coli ATCC 25922
  MIC 24 hr: > 64 µg/mL
Aspergillus spp.; [14]
  MIC 24 hr (MEC): 0.06
  MIC 48 hr (MEC): 0.008
Aspergillus spp.; [15]
  MIC 24 hr (MEC): 0.03
  MIC 48 hr (MEC): 0.008
Candida spp. [5]
  MIC 24 hr: 0.5 µg/mL (≈ 0.394 µM)
  MIC 48 hr: 2 µg/mL (≈ 1.57 µM)

## NC[C@H]1O[C@H](O[C@H]2[C@H](O)[C@@H](O[C@H]3O[C@H](CO)[C@@H](O)[C@H](N)[C@H]3O)[C@H](N)C[C@@H]2N)[C@H](N)C[C@@H]1O [TOB]
P. aeruginosa [7]; P. aeruginosa isolate 6322
  MIC: 128 µg/mL
P. aeruginosa [7]; P. aeruginosa isolate 6977
  MIC: 128 µg/mL
P. aeruginosa [7]; P. aeruginosa isolate 7745
  MIC: 0.5 µg/mL
P. aeruginosa [7]; P. aeruginosa isolate 8798
  MIC: 16 µg/mL
P. aeruginosa [7]; P. aeruginosa isolate 9108
  MIC: 0.5 µg/mL
[8]; B. cenocepacia isolate 0548 (CIP-R)
  MIC: 64 µg/mL (≈ 137 µM)
[8]; B. cenocepacia isolate 0813 (CPI-I)
  MIC: 256 µg/mL (≈ 548 µM)
[8]; B. cepacia isolate 0546
  MIC: 64 µg/mL (≈ 137 µM)
[8]; B. cepacia isolate 1793
  MIC: 64 µg/mL (≈ 137 µM)
[8]; B. cepacia isolate 9040
  MIC: 8 µg/mL (≈ 17.1 µM)
[8]; B. multivorans isolate 1791
  MIC: 64 µg/mL (≈ 137 µM)
[8]; B. multivorans isolate 5665 (CIP-I)
  MIC: 64 µg/mL (≈ 137 µM)
[8]; B. multivorans isolate 8952 (CIP-I)
  MIC: 16 µg/mL (≈ 34.2 µM)
P. aeruginosa [9]; P. aeruginosa isolate 103 (ATCC 25922), QC strain, initial MIC testing
  MIC: 1 µg/mL (≈ 2.14 µM)
P. aeruginosa [9]; P. aeruginosa isolate 103 (ATCC 25922), during FIC testing, each agent tested alone for QC, one replicate
  MIC: 1 µg/mL
P. aeruginosa [9]; P. aeruginosa isolate 1497 (TOB-R, AMK-R, CIP-I, AZT-R, COL-R), initial MIC testing
  MIC: 16 µg/mL (≈ 34.2 µM)
P. aeruginosa [9]; P. aeruginosa isolate 1530 (TOB-R, AMK-R, CIP-R), initial MIC testing
  MIC: 32 µg/mL (≈ 68.4 µM)
P. aeruginosa [9]; P. aeruginosa isolate 1553 (TOB-R, AMK-R, CIP-R), initial MIC testing
  MIC: >256 µg/mL
P. aeruginosa [9]; P. aeruginosa isolate 6322 (MEM-R, TOB-R, AMK-R, CIP-R, AZT-R), initial MIC testing
  MIC: 128 µg/mL (≈ 274 µM)
P. aeruginosa [9]; P. aeruginosa isolate 6977 (MEM-I, TOB-R, CIP-R, AZT-I), initial MIC testing
  MIC: 128 µg/mL (≈ 274 µM)
P. aeruginosa [9]; P. aeruginosa isolate 7745 (MEM-R, CIP-R, AZT-R), initial MIC testing
  MIC: 0.5 µg/mL (≈ 1.07 µM)
P. aeruginosa [9]; P. aeruginosa isolate 7754 (MEM-R, TOB-R, CIP-R, AZT-I), initial MIC testing
  MIC: 32 µg/mL (≈ 68.4 µM)
P. aeruginosa [9]; P. aeruginosa isolate 7762 (MEM-I, CIP-I), initial MIC testing
  MIC: 1 µg/mL (≈ 2.14 µM)
P. aeruginosa [9]; P. aeruginosa isolate 7871 (MEM-R, AZT-I), initial MIC testing
  MIC: 0.5 µg/mL (≈ 1.07 µM)
P. aeruginosa [9]; P. aeruginosa isolate 7874, initial MIC testing
  MIC: 0.5 µg/mL (≈ 1.07 µM)
P. aeruginosa [9]; P. aeruginosa isolate 7886 (MEM-R, CIP-R, AZT-R), initial MIC testing
  MIC: 1 µg/mL (≈ 2.14 µM)
P. aeruginosa [9]; P. aeruginosa isolate 8797 (MEM-R, TOB-R, AMK-R, CIP-R, AZT-R, COL-R), initial MIC testing
  MIC: >256 µg/mL
P. aeruginosa [9]; P. aeruginosa isolate 8798 (MEM-R, TOB-R, AMK-R, CIP-R, AZT-R, COL-R), initial MIC testing
  MIC: 32 µg/mL (≈ 68.4 µM)
P. aeruginosa [9]; P. aeruginosa isolate 9108 (CIP-R, AZT-I), initial MIC testing
  MIC: 0.5 µg/mL (≈ 1.07 µM)
[10]; B. cenocepacia isolate 0548
  MIC: 32 µg/mL
[10]; B. cenocepacia isolate 0813
  MIC: 256 µg/mL
[10]; B. cepacia isolate 1793
  MIC: 16 µg/mL
P. aeruginosa [11]; Table 24
  MIC, CLSI QC range: (0.25-1) μg/mL
P. aeruginosa [11]; Table 26
  MIC, CLSI QC range: (0.25-1) μg/mL

## NC[C@H]1O[C@H](O[C@H]2[C@H](O)[C@@H](O[C@H]3O[C@H](CO)[C@@H](O)[C@H](N)[C@H]3O)[C@H](N)C[C@@H]2N)[C@H](N)C[C@@H]1O [Tobramycin, reference compound]
[12]
  MMAD: 2.81 μm
P. aeruginosa [7]; P. aeruginosa 6322, FIC of Tobramycin in combination with BisEDT, panel rows C-G
  FICB: 1
P. aeruginosa [7]; P. aeruginosa 6322, MIC of Tobramycin in combination with BisEDT, panel rows C-G
  MICB: 128 µg/mL
P. aeruginosa [7]; P. aeruginosa 6977, Tobramycin FIC in combination with BisEDT, per checkerboard row
  FICB: 2
P. aeruginosa [7]; P. aeruginosa 6977, Tobramycin MIC in combination with BisEDT, per checkerboard row
  MICB: 256 µg/mL
P. aeruginosa [7]; P. aeruginosa 7745, Tobramycin FIC in combination with BisEDT, per checkerboard row
  FICB: 1
P. aeruginosa [7]; P. aeruginosa 7745, Tobramycin MIC in combination with BisEDT, per checkerboard row
  MICB: 0.5 µg/mL
P. aeruginosa [7]; P. aeruginosa 9108, Tobramycin FIC in combination with BisEDT, per checkerboard row
  FICB: 1
P. aeruginosa [7]; P. aeruginosa 9108, Tobramycin MIC in combination with BisEDT, per checkerboard row
  MICB: 0.5 µg/mL
[13]; PA01, 1 μg/mL, 10% CF sputum, most time points
  CFU higher in cultures with sputum than without: 0.5-1 log CFU/mL
[13]; PA01, 10% CF patient sputum
  effect of CF patient sputum on bactericidal activity: partially inhibits
[10]; B. cenocepacia 548, FIC of Tobramycin in combination with BisEDT
  FICB: 0.25
[10]; B. cenocepacia 813, FIC of Tobramycin in combination with BisEDT
  FICB: 1
[10]; B. cepacia 546, Tobramycin FIC in combination with BisEDT, per checkerboard row
  FICB: 0.5
[10]; B. cepacia 546, Tobramycin MIC in combination with BisEDT, per checkerboard row
  MICB: 16 µg/mL
[10]; B. cepacia 1793, Tobramycin FIC in combination with BisEDT, per checkerboard row
  FICB: 0.5 and 1
[10]; B. cepacia 1793, Tobramycin MIC in combination with BisEDT, per checkerboard row
  MICB: 8 µg/mL and 16 µg/mL
[10]; B. multivorans 1795, FIC of Tobramycin in combination with BisEDT
  FICB: 1
[10]; B. multivorans 1795, MIC of Tobramycin in combination with BisEDT
  MICB: >256 µg/mL
